In ChEMBL document CHEMBL1149010, “A comparative study on anti-inflammatory activities of the enantiomers, shikonin and alkannin” (1986):

Key:
Format in all cases: functional
Rattus norvegicus [1] = test: Antiinflammatory activity against thermal injury-induced edema in Wistar rat skin assessed as inhibition of edema at 50 ug treated topically relative to control; set-up: scale not given: the % may be the effect or the level left
Rattus norvegicus [2] = test: Antiinflammatory activity against thermal injury-induced edema in Wistar rat skin assessed as inhibition of edema at 100 ug treated topically relative to control; set-up: scale not given: the % may be the effect or the level left
Rattus norvegicus [3] = test: Decrease in histamine-induced capillary permeability in Wistar rat assessed as inhibition of pontamine sky blue 6BX dye leakage at 100 ug treated topically relative to control
Rattus norvegicus [4] = test: Decrease in histamine-induced capillary permeability in Wistar rat assessed as inhibition of pontamine sky blue 6BX dye leakage at 50 ug treated topically relative to control

Row | Compound | Activity (Rattus norvegicus [1]) [%] | Activity (Rattus norvegicus [2]) [%] | inhibition (INH) (Rattus norvegicus [3]) [%] | inhibition (INH) (Rattus norvegicus [4]) [%]
1 | CCCCC1C(=O)N(c2ccccc2)N(c2ccccc2)C1=O [PHENYLBUTAZONE] | 38.9 |  |  | 
2 | CC(C)=CC[C@@H](O)C1=CC(=O)c2c(O)ccc(O)c2C1=O (stereo in doubt; form 1) [SHIKONIN] | 22 | 20.6 | 22.3 | 13.7
3 | CC(C)=CC[C@H](O)C1=CC(=O)c2c(O)ccc(O)c2C1=O [ALKANNIN] | 21.3 | 21.7 | 21.3 | 7.9
4 | CC(C)=CC[C@@H](O)C1=CC(=O)c2c(O)ccc(O)c2C1=O (stereo in doubt; form 2) [SHIKONIN] | 26.7 | 23.2 |  | 
